The results in this text go back to patent US7951962B2, “Organic semiconductor compound, organic semiconductor thin film, organic semiconductor coating liquid, organic thin film transistor, methods for producing bis(benzo[4,5] thieno)[2,3-B:3′2′-E][1,4]dithin and bis(benzo [4,5]thieno)[2,3-B:2′3′-E][1,4]dithiin” (Seiko Epson Corporation, priority 2006, dated 2011).

Data set [1] in a line: Solvent solubility. In kind it is physicochemical. From the text:
The solvent for dissolving the organic semiconductor compound material according to the embodiment may be a hydrocarbon, an alcohol, an ether, an ester, a halogen, a ketone, […], the BTX, a non-proton polar solvent or a mixture solvent thereof. The hydrocarbon may be hexane, heptane, octane or cyclohexane, for example. The alcohol may be methanol, ethanol, (iso-)propanol or butanol. The ether may be diethyl ether, tetrahydrofuran or dioxane and the ester may be ethyl acetate or butyl acetate. The halogen may be dichloromethane or chloroform and the ketone may be acetone or methyl ethyl ketone. The nitrile may be acetonitrile or methyl nitrile. The BTX is a mixture of benzene, toluene and xylene. The non-proton polar solvent may be dimethylsulfoxide (DMSO), dimethylformamide (DMF) or hexamethylphosphoramide (HMPA).
Based on logarithmic plotting in the graph, an ON/OFF ratio of the device was approximately […].

Broadly, the melting point is the temperature of the solid-liquid transition.

Compound `c1ccc2c3c(sc2c1)Sc1c(sc2ccccc12)S3` [bis(benzo[4,5]thieno)[2,3-b: 2′3′-e][1,4]dithiin] showed a melting point of 207 to 208.3 °C.

As for `c1ccc2c3c(sc2c1)Sc1sc2ccccc2c1S3` [bis(benzo[4,5]thieno)[2,3-b: 3′2′-e][1,4]dithiin], the solubility in solvent entry in data set [1] (the above-described solvent (hydrocarbon, alcohol, ether, ester, halogen, ketone, nitrile, BTX, non-proton polar solvent)) is reported as “soluble in the above-described solvent”. For the same compound, the “solubility compared with known compounds” value in data set [1] (versus well-known low-molecular organic semiconductor compounds) is given as “higher solubility than well-known low-molecular organic semiconductor compounds”.
